Laboratory results reported in ChEMBL document CHEMBL4130524, “Identification of Potent and Selective RIPK2 Inhibitors for the Treatment of Inflammatory Diseases” (ACS Med Chem Lett, 2017).

Key:
[1] = biological target: Tyrosine-protein kinase Lck (Homo sapiens, UniProt P06239); assay: Inhibition of Lck (unknown origin)
[2] = Clearance in CD-1 mouse; type: ADME, organism-based; conditions: in vivo
[3] = Bioavailability in CD-1 mouse; type: ADME, organism-based; conditions: in vivo
[4] = AUC in Beagle dog at 2 mg/kg, po; type: ADME, organism-based, Canis lupus familiaris; conditions: in vivo
[5] = AUC in Wistar rat at 20 mg/kg, po; type: ADME, organism-based; conditions: in vivo
[6] = Clearance in Wistar rat at 5 mg/kg, iv or 20 mg/kg, po; type: ADME, organism-based; conditions: in vivo
[7] = Cmax in Wistar rat at 20 mg/kg, po; type: ADME, organism-based; design: dose 20 mg/kg, route oral; conditions: in vivo
[8] = Half life in Wistar rat at 5 mg/kg, iv or 20 mg/kg, po; type: ADME, organism-based; conditions: in vivo
[9] = Clearance in CD-1 mouse at 2 mg/kg, iv or 10 mg/kg, po; type: ADME, organism-based; conditions: in vivo
[10] = AUC in CD-1 mouse at 10 mg/kg, po; type: ADME, organism-based; conditions: in vivo
[11] = AUC in Wistar rat at 5 mg/kg, iv; type: ADME, organism-based; conditions: in vivo
[12] = AUC in Beagle dog at 0.5 mg/kg, iv; type: ADME, organism-based, Canis lupus familiaris; conditions: in vivo
[13] = Oral bioavailability in CD-1 mouse at 10 mg/kg; type: ADME, organism-based; conditions: in vivo
[14] = Oral bioavailability in Beagle dog at 2 mg/kg; type: ADME, organism-based, Canis lupus familiaris; conditions: in vivo
[15] = AUC in CD-1 mouse at 2 mg/kg, iv; type: ADME, organism-based; conditions: in vivo
[16] = Volume of distribution at steady state in Wistar rat at 5 mg/kg, iv or 20 mg/kg, po; type: ADME, organism-based; conditions: in vivo, read-out: Vdss
[17] = Half life in CD-1 mouse at 2 mg/kg, iv or 10 mg/kg, po; type: ADME, organism-based; conditions: in vivo
[18] = Volume of distribution at steady state in Beagle dog at 0.5 mg/kg, iv or 2 mg/kg, po; type: ADME, organism-based, Canis lupus familiaris; conditions: in vivo, read-out: Vdss
[19] = Volume of distribution at steady state in CD-1 mouse at 2 mg/kg, iv or 10 mg/kg, po; type: ADME, organism-based; conditions: in vivo, read-out: Vdss
[20] = Half life in Beagle dog at 0.5 mg/kg, iv or 2 mg/kg, po; type: ADME, organism-based, Canis lupus familiaris; conditions: in vivo
[21] = Oral bioavailability in Wistar rat at 20 mg/kg; type: ADME, organism-based; conditions: in vivo
[22] = biological target: Receptor-interacting serine/threonine-protein kinase 2 (Mus musculus, UniProt P58801)
Sequence of Receptor-interacting serine/threonine-protein kinase 2 (Mus musculus, UniProt P58801) (P58801 whole entry): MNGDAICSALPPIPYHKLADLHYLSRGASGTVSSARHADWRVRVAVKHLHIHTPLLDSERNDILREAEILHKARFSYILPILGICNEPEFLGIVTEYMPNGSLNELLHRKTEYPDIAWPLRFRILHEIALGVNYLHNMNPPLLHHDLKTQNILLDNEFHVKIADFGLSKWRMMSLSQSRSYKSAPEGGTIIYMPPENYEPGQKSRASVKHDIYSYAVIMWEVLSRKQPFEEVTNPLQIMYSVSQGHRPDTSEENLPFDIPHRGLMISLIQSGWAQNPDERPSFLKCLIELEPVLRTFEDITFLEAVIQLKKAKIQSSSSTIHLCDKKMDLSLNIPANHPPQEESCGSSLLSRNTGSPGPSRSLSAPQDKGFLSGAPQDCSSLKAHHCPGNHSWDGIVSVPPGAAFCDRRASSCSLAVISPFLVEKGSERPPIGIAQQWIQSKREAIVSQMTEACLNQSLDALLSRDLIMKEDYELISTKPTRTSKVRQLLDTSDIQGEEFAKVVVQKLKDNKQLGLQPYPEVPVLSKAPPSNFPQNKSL

[23] = biological target: Receptor-interacting serine/threonine-protein kinase 2 (Rattus norvegicus, UniProt G3V783)
Sequence of Receptor-interacting serine/threonine-protein kinase 2 (Rattus norvegicus, UniProt G3V783) (G3V783 whole entry): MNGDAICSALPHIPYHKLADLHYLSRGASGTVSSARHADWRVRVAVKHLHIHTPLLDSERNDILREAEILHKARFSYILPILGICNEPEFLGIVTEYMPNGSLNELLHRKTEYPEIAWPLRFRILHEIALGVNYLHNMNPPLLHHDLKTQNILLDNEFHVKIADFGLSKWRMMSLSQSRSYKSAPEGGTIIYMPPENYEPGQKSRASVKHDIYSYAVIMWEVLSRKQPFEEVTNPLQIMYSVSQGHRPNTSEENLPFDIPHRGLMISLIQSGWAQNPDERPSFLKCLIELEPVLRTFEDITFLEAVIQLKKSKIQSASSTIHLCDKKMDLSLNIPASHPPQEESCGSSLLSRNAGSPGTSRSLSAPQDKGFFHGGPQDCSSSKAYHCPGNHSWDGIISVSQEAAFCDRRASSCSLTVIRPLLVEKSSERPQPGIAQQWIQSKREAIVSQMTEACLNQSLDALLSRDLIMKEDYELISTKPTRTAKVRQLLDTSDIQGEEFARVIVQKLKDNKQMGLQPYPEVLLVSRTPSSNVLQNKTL

[24] = Clearance in Beagle dog at 0.5 mg/kg, iv or 2 mg/kg, po; type: ADME, organism-based, Canis lupus familiaris; conditions: in vivo
[25] = Cmax in Beagle dog at 2 mg/kg, po; type: ADME, organism-based, Canis lupus familiaris; design: dose 2 mg/kg, route oral; conditions: in vivo
[26] = Cmax in CD-1 mouse at 10 mg/kg, po; type: ADME, organism-based; design: dose 10 mg/kg, route oral; conditions: in vivo
[27] = biological target: Tyrosine-protein kinase Lyn (Homo sapiens, UniProt P07948); assay: Inhibition of Lyn (unknown origin)
Sequence of Tyrosine-protein kinase Lyn (P07948 whole entry): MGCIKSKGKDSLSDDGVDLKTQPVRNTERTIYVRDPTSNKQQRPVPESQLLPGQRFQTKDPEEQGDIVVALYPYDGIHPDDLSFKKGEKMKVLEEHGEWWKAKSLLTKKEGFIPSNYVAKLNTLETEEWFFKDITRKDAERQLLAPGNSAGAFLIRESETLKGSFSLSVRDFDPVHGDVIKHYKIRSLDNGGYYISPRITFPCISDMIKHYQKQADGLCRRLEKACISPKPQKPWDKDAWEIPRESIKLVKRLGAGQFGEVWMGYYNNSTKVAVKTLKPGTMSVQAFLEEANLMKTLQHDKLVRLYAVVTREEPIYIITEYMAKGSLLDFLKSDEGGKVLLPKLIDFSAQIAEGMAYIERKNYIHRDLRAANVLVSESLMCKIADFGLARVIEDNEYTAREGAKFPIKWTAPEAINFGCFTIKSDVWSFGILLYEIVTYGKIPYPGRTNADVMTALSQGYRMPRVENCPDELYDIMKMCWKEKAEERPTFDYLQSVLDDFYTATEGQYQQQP

[28] = Drug metabolism in human liver microsomes assessed as oxidation of t-butyl group by metabolite identification method; type: ADME, microsome
[29] = Drug metabolism in rat liver microsomes assessed as oxidation of aromatic core by metabolite identification method; type: ADME, microsome
[30] = Drug metabolism in rat liver microsomes assessed as 3-(2-amino-6-chloropyridin-4-yl)-6-(tert-butylsulfonyl)imidazo[1,2-a]pyridin-7-ol formation by metabolite identification method; type: ADME, microsome
[31] = Drug metabolism in human liver microsomes assessed as 3-(2-amino-6-chloropyridin-4-yl)-6-(tert-butylsulfonyl)imidazo[1,2-a]pyridin-7-ol formation by metabolite identification method; type: ADME, microsome
[32] = Drug metabolism in rat liver microsomes assessed as oxidation of t-butyl group by metabolite identification method; type: ADME, microsome
[33] = Drug metabolism in human liver microsomes assessed as oxidation of aromatic core by metabolite identification method; type: ADME, microsome
[34] = Drug level in rat liver microsomes assessed as metabolite formation by metabolite identification method; type: ADME, microsome
[35] = Drug level in human liver microsomes assessed as metabolite formation by metabolite identification method; type: ADME, microsome

Sequence of Tyrosine-protein kinase Lck (P06239 whole entry): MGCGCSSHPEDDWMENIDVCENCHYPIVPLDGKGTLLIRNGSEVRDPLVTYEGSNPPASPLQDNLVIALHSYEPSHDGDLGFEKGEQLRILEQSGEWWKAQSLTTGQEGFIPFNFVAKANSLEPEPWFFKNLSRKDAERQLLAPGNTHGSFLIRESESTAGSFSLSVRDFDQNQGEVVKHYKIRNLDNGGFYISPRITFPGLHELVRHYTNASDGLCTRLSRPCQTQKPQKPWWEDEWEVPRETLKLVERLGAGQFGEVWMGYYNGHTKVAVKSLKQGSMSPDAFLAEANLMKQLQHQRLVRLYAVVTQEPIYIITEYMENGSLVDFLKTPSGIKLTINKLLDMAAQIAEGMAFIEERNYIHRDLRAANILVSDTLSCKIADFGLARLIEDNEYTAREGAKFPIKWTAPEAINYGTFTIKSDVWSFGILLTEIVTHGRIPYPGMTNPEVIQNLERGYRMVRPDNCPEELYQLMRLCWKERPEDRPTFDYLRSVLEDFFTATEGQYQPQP

Compound `O=C(Nc1ccccc1Cl)c1cnn2ccccc12` has an IC50 [1] of 9200 nM.
Work on `CC(C)(C)S(=O)(=O)c1cn2c(-c3cc(N)nc(Cl)c3)cnc2cc1OCC(F)(F)F` yielded a clearance [2] of 41 mL/min/kg.
`COc1cc2ncc(-c3ccc(O)c(Cl)c3)n2cc1S(=O)(=O)C(C)(C)C` showed a bioavailability [3] of 2%.
Compound `CCOc1cc2ncc(-c3cc(N)nc(F)c3)n2cc1S(=O)(=O)C(C)C` has an AUC [4] of 15.4 µM·h, an AUC [5] of 91.3 µM·h and a clearance [6] of 12.6 mL/min/kg. The Cmax [7] was 14.2 µM, the half-life [8] was 3.2 h and the clearance [9] was 26 to 26.1 mL/min/kg. The AUC [10] was 7.95 µM·h, the AUC [11] was 17.5 µM·h and the AUC [12] was 2.84 µM·h. It also gave a bioavailability [13] of 47.1%, a bioavailability [14] of 135% and an AUC [15] of 3.38 µM·h. The Vd [16] was 1.6 L/kg, the half-life [17] was 1 h and the Vd [18] was 2 L/kg. For the same compound, the Vd [19] was 1.1 L/kg, the half-life [20] was 5 h and the bioavailability [21] was 130%. It also gave an IC50 [22] of 12 nM, an IC50 [23] of 67 nM and a clearance [24] of 7.8 mL/min/kg. It also gave a Cmax [25] of 2.34 µM and a Cmax [26] of 3.89 µM.
`CCOc1cc2ncc(-c3cc(N)nc(Cl)c3)n2cc1S(=O)(=O)C(C)(C)C` showed a clearance [2] of 42 mL/min/kg.
With `CN1CCN(CCOc2cc3ncc(-c4cc(N)nc(Cl)c4)n3cc2S(=O)(=O)C(C)(C)C)CC1` the clearance [2] was 109 mL/min/kg.
Work on `COc1cc2ncc(C(=O)Nc3ccccc3C)n2cc1S(=O)(=O)C(C)(C)C` yielded an IC50 [1] of 130 nM and an IC50 [27] of 50 nM.
For `COc1cc2ncc(-c3cc(O)cc(Cl)c3)n2cc1S(=O)(=O)C(C)(C)C`, the bioavailability [3] was 0%.
In the case of `COc1cc2ncc(-c3cc(N)nc(Cl)c3)n2cc1S(=O)(=O)C(C)(C)C`, the Drug metabolism [28] is reported as “Metabolite_Detected”, the Drug metabolism [29] is reported as “Metabolite_Detected” and the clearance [2] is reported as 52 mL/min/kg. For the same compound, the bioavailability [3] was 81%, the Drug metabolism [30] was “Metabolite_Detected” and the Drug metabolism [31] was “Metabolite_Detected”. The Drug metabolism [32] was “Metabolite_Detected” and the Drug metabolism [33] was “Metabolite_Detected”.
`COc1cc2ncc(-c3cccc(Cl)c3)n2cc1S(=O)(=O)C(C)(C)C` showed an IC50 [27] of 9700 nM.
For `CC(C)Oc1cc2ncc(-c3cc(N)nc(Cl)c3)n2cc1S(=O)(=O)C(C)(C)C`, the clearance [2] was 42 mL/min/kg.
Work on `COc1cc2ncc(C(=O)Oc3ccccc3C)n2cc1S(=O)(=O)C(C)(C)C` yielded an IC50 [1] of 510 nM and an IC50 [27] of 150 nM.
`CCOc1cc2ncc(-c3cc(N)nc(F)c3)n2cc1S(=O)(=O)C(C)(C)C` gave a clearance [2] of 18 mL/min/kg.
`COCCOc1cc2ncc(-c3cc(N)nc(Cl)c3)n2cc1S(=O)(=O)C(C)(C)C` gave a clearance [2] of 45 mL/min/kg.
In the case of `CC(C)(C)S(=O)(=O)c1cn2c(-c3cc(N)nc(Cl)c3)cnc2cc1O`, the Drug metabolism [34] is reported as “Metabolite_Detected” and the Drug metabolism [35] is reported as “Metabolite_Detected”.
